According to EP1420018A1, “Pyrido[1,2-a]benzimidazole derivatives useful in treating central nervous system disorders” (Ortho-McNeil Pharmaceutical, Inc., priority 1996, dated 1998):
Where a name gives a salt, the structure may show the parent alone. Read-outs that look alike come from different tables or passages of the source.

Experiments:
[1] = system: metrazol-induced convulsions; experiment: Suppression of Metrazol-Induced Convulsions in Adult Male Mice; type: in vivo; details: Mus musculus, ip
Method: Assay to Determine the Suppression of Metrazol-Induced Convulsions in Adult Male Mice
Male CD1 mice, were fasted at least 16 hours, were divided into equal groups and test compounds or vehicle were administered parenterally. Water was not withheld except during the period of observations. […] Metrazol was dissolved in 0.9% sodium chloride solution, and its dose volume was 10 ml/kg. Animals were housed individually for observation of clonic convulsions, tonic convulsions and death for a period of 30 min. […] The biological assay was considered to be valid if the effects of a known anticonvulsant (positive control) were detected, within the same experiment. Activity was reported as percent reduction of clonic convulsions from the vehicle group.

[2] = system: Anxiety in the Adult Male Rat; experiment: Suppression of Anxiety in the Adult Male Rat (rat conflict test); type: in vivo, rats; details: Rattus norvegicus
Method: Assay to Measure the Suppression of Anxiety in the Adult Male Rat
Male rats were deprived of water for 48 hours and were deprived of food for 24 hours prior to testing. After the first 24 hours of water deprivation, they were placed in the conflict chamber for a training period; wherein, they were allowed 200 unpunished licks from a bottle containing tap water. The experiment was run the next day. At the expected time of peak activity, the animals were placed in the chamber and allowed access to tap water. […] Their first lick initiates a 3-min test session. Subsequently, every 20th lick was punished by a 0.2-s shock delivered via the stainless-steel drinking-tube.
The Wilcoxon rank-sum test (Mann-Whitney U-test) was used to test for an increase (p<0.05, 1-tailed) in the median number of shocks in drug-treated groups, compared to a concurrently run vehicle-treated group. The biological assay is considered to be valid if the effects of a known anxiolytic (positive control) are detected, within the same experiment.

[3] = system: metrazol-induced convulsions; experiment: Suppression of Metrazol-Induced Convulsions in Adult Male Mice; type: in vivo; details: Mus musculus, po
[4] = biological target: benzodiazepine site of the GABA-A receptor; experiment: Benzodiazepine Receptor Binding Assay (inhibition of 3H-flunitrazepam binding); details: read-out: GABAA Receptor Binding IC50
[5] = block of clonic convulsions, male CD1 mice, >30 = active dose not determined
[6] = ip, minimum effective dose, increase in shocks tolerated, >10 = active dose not determined, read-out: Rat Conflict (MED, mg/kg) ip
[7] = po, minimum effective dose, increase in shocks tolerated, >10 = active dose not determined, read-out: Rat Conflict (MED, mg/kg) po
[8] = inhibition of 3H-flunitrazepam (ca. 3 nM) binding to membranes, 25°C, over 10,000 = not active
[9] = po, rat, po, read-out: Rat Conflict (MED, mg/kg) po
[10] = ip, rat, ip, read-out: Rat Conflict (MED, mg/kg) ip

Structure (SMILES) | IC50 [4, 8] [µM] | IC50 [4] [µM] | ED50 [1, 5] [mg/kg] | minimal effective dose [2, 6] [mg/kg] | minimal effective dose [2, 7] [mg/kg] | ED50 [3, 5] [mg/kg] | ED50 ([1]; mouse) [mg/kg] | minimal effective dose [2, 9] [mg/kg] | ED50 ([3]; mouse) [mg/kg] | minimal effective dose [2, 10] [mg/kg]
O=C1CCN2C(=C1C(=O)Nc1ccccc1F)N(CCNC(=O)c1ccc(C(F)(F)F)cc1)c1cc(F)ccc12 [Compound 42] | 0.017 | – | ≥ 30 | ≤ 10 | ~3 | > 30 | – | – | – | –
CN(C)CCN1C2=C(C(=O)Nc3ccccc3F)C(=O)CCN2c2ccc(Cl)cc21 [Compound 43] | 0.0269 | – | 1 to 10 | 10 | > 10 | < 30 | – | – | – | –
O=C1CCN2C(=C1C(=O)Nc1ccccc1F)N(CCNS(=O)(=O)c1ccccc1)c1cc(F)ccc12 [Compound 44] | 0.0101 | – | ≤ 1 | > 10 | > 10 | < 30 | – | – | – | –
CN(C)CCN1C2=C(C(=O)Nc3ccccc3F)C(=O)CCN2c2cccc(F)c21 [Compound 45] | 0.0406 | – | 1 | > 10 | 10 | 3 to 10 | – | – | – | –
O=C1CCN2C(=C1C(=O)Nc1ccccc1F)N(CCNS(=O)(=O)c1cccs1)c1cc(F)ccc12 [Compound 47] | – | 0.0137 | – | – | – | – | 1 | – | 30 | > 10
O=C1CCN2C(=C1C(=O)Nc1ccccc1F)N(CCNS(=O)(=O)C(F)(F)F)c1cc(F)ccc12 [Compound 48, 7-Fluoro-1,2-dihydro-5-[2-(trifluoromethylsulfonamido)ethyl]-3-oxo-N-(2-fluorophenyl)pyrido[1,2-a]benzimidazole-4-carboxamide] | – | 0.0302 | – | – | – | – | ≤ 1 | 10 | < 30 | –
CN(C)CCN1C2=C(C(=O)Nc3cccs3)C(=O)CCN2c2ccc(F)cc21 [Compound 49] | – | 0.152 | – | – | – | – | 3 | ~10 | ~5 | > 10
CN(C)CCN1C2=C(C(=O)Nc3c(F)cc(F)cc3F)C(=O)CCN2c2ccc(F)cc21 [Compound 54] | – | 0.208 | – | – | – | – | 10 | – | > 30 | > 10
CN(C)CCN1C2=C(C(=O)Nc3ccc(F)cc3F)C(=O)CCN2c2ccc(F)cc21 [Compound 55] | – | 0.0318 | – | – | – | – | 1 | 3 | 1 | < 10
CNCCN1C2=C(C(=O)Nc3ccccc3F)C(=O)CCN2c2ccc(F)cc21 [Compound 59, 7-Fluoro-1,2-dihydro-5-[2-(methylamino)ethyl]-3-oxo-N-(2-fluorophenyl)pyrido[1,2-a]benzimidazole-4-carboxamide hydrochloride hydrate (4:4:5)] | – | 0.016 | – | – | – | – | 3 | 1 | 10 | 10
CN(C)CCCN1C2=C(C(=O)Nc3c(F)cccc3F)C(=O)CCN2c2ccc(F)cc21 [Compound 66] | – | 0.0837 | – | – | – | – | > 30 | – | > 10 | > 10
CC(C)N(CCN1C2=C(C(=O)Nc3c(F)cccc3F)C(=O)CCN2c2ccc(F)cc21)C(C)C [Compound 68] | – | 0.0446 | – | – | – | – | > 10 | – | > 30 | 10
CC(C)N(CCN1C2=C(C(=O)Nc3ccccc3F)C(=O)CCN2c2ccc(F)cc21)C(C)C [Compound 69] | – | 0.0784 | – | – | – | – | 1 | – | > 30 | > 10
CCN(CC)CCN1C2=C(C(=O)Nc3c(F)cccc3F)C(=O)CCN2c2ccc(F)cc21 [Compound 70] | – | 0.267 | – | – | – | – | > 10 | – | > 30 | > 10
CCN(CC)CCN1C2=C(C(=O)Nc3ccccc3F)C(=O)CCN2c2ccc(F)cc21 [Compound 71] | – | 0.0745 | – | – | – | – | 2 | > 10 | 10 | < 10
CN(C)CCN1C2=C(C(=O)Nc3ccncc3)C(=O)CCN2c2ccccc21 [Compound 72] | – | 3.84 | – | – | – | – | > 10 | – | > 30 | > 10
CN(C)CCN1C2=C(C(=O)Nc3c(F)cccc3F)C(=O)CCN2c2ccc(F)cc21 [Compound 73] | – | 0.0321 | – | – | – | – | > 10 | – | > 30 | > 10
CN(C)CCN1C2=C(C(=O)Nc3ccccc3F)C(=O)CCN2c2ccc(F)cc21 [Compound 74, 7-Fluoro-1,2-dihydro-5-(2-dimethylaminoethyl)-3-oxo-N-(2-fluorophenyl)pyrido[1,2-a]benzimidazole-4-carboxamide hydrochloride hydrate (4:4:1)] | – | 0.0499 | – | – | – | – | 0.5 | 3 | < 3 | < 10
O=C1CCN2C(=C1C(=O)Nc1ccccc1F)N(CCNC(=O)c1ccccc1C(F)(F)F)c1cc(F)ccc12 [Compound 76] | – | 0.0409 | – | – | – | – | > 1 | > 10 | > 30 | –

The remaining molecules from weak to strong by IC50 [4], led by results:

IC50 [4, 8] [µM] | IC50 [4] [µM] | Structure (SMILES) | ED50 [1, 5] [mg/kg] | minimal effective dose [2, 6] [mg/kg] | minimal effective dose [2, 7] [mg/kg] | ED50 [3, 5] [mg/kg] | ED50 ([1]; mouse) [mg/kg] | minimal effective dose [2, 9] [mg/kg] | ED50 ([3]; mouse) [mg/kg] | minimal effective dose [2, 10] [mg/kg]
– | 0.011 | CN(CCN1C2=C(C(=O)Nc3c(F)cccc3F)C(=O)CCN2c2ccc(F)cc21)Cc1ccc(F)cc1 [Compound 65] | – | – | – | – | > 10 | – | > 30 | > 10
– | 0.0095 | O=C1CCN2C(=C1C(=O)Nc1ccccc1F)N(CCNC(=O)c1cccc(C(F)(F)F)c1)c1cc(F)ccc12 [Compound 75] | – | – | – | – | > 1 | > 10 | > 30 | –
– | 0.0081 | O=C1CCN2C(=C1C(=O)Nc1ccccc1F)N(CCNC(=O)c1ccccc1)c1cc(F)ccc12 [Compound 46] | – | – | – | – | 1 | ~10 | 30 | –
– | 0.00799 | COCCN(CCN1C2=C(C(=O)Nc3ccccc3F)C(=O)CCN2c2ccc(F)cc21)Cc1ccccc1 [Compound 56] | – | – | – | – | 1 | – | ~10 | > 10
– | 0.0077 | CS(=O)(=O)NCCN1C2=C(C(=O)Nc3ccccc3F)C(=O)CCN2c2ccc(F)cc21 [Compound 50] | – | – | – | – | 1 | – | < 30 | > 10
– | 0.00769 | CN(CCN1C2=C(C(=O)Nc3ccccc3F)C(=O)CCN2c2ccc(F)cc21)Cc1ccc(F)cc1 [Compound 62] | – | – | – | – | 3 | > 10 | 30 | < 10
– | 0.00742 | COCCNCCN1C2=C(C(=O)Nc3ccccc3F)C(=O)CCN2c2ccc(F)cc21 [Compound 52] | – | – | – | – | 1 | 10 | 1 | ~10
– | 0.00632 | O=C(CN1C2=C(C(=O)Nc3ccccc3F)C(=O)CCN2c2ccc(F)cc21)Nc1ccccc1F [Compound 61, 7-Fluoro-1,2-dihydro-5-[N-(2-fluorophenyl)-2-acetamido]-3-oxo-N-(2-fluorophenyl)pyrido[1,2-a]benzimidazole-4-carboxamide] | – | – | – | – | < 1 | – | 30 | > 10
– | 0.00547 | CC(=O)NCCN1C2=C(C(=O)Nc3ccccc3F)C(=O)CCN2c2ccc(F)cc21 [Compound 53] | – | – | – | – | 7 | – | 30 | > 10
– | 0.00513 | NCCN1C2=C(C(=O)Nc3ccccc3F)C(=O)CCN2c2ccc(F)cc21 [Compound 57] | – | – | – | – | 0.3 | 10 | 10 | ~10
– | 0.00329 | CN(C)CCCN1C2=C(C(=O)Nc3ccccc3F)C(=O)CCN2c2ccc(F)cc21 [Compound 67] | – | – | – | – | 3 | > 10 | 30 | 10
– | 0.00302 | O=C1CCN2C(=C1C(=O)Nc1ccccc1F)N(CCN(Cc1ccccc1)Cc1ccccc1)c1cc(F)ccc12 [Compound 64] | – | – | – | – | 3 | – | > 30 | > 10
– | 0.00054 | CC(C)(C)OC(=O)NCCN1C2=C(C(=O)Nc3ccccc3F)C(=O)CCN2c2ccc(F)cc21 [Compound 58] | – | – | – | – | < 1 | > 10 | < 30 | ≤ 10
– | 0.00051 | O=C1CCN2C(=C1C(=O)Nc1ccccc1F)N(CCNC(=O)C(F)(F)F)c1cc(F)ccc12 [Compound 51] | – | – | – | – | 0.3 | > 10 | 1 | ~10
